One test deals with β1-AR. The experiment in a line: Proportion of β1-AR+ T cells in skin of IMQ-treated mice (immunofluorescence and flow cytometry). Format: in vivo. The source says: In the embodiment of the disclosure, immunofluorescence and flow cytometry are used to detect β1-AR is mainly expressed in IL-17A-producing γδT cells (also referred to as γδT-17 cells), as shown in FIG. 14.
For orientation: Flow cytometry measures light scatter and fluorescence of single cells or particles in a stream.

A short description of test [1]: Neurotransmitter content (ELISA) and TH phosphorylation (western blot) in IMQ-treated mice. Format: in vivo. (In general: ELISA stands for enzyme-linked immunosorbent assay.)
The next test has as its system Dendritic cells (DCs). The conditions noted are these: cited from earlier work; for IL-17A induced by stimulated DCs / production of IFN-γ by CD4 cells: DCs in mice stimulated.
For test [2], the system named is IMQ-induced mice. Put plainly: IMQ-induced psoriasis mouse model smeared with β1-AR antagonist/agonist. Format: in vivo. The method, then: In the embodiment of the disclosure, the construction of psoriasis mouse model smeared with β1-AR antagonist/agonist is as follows. 5 μL of β1-AR antagonist/agonist storage solution (40 mg/mL, DMSO solvent) is taken and dissolved in 95 μL of 20% sulfobutylether-beta-cyclodextrin derivative (SBE-β-CD) solution (diluted with sterile sodium chloride) to prepare 2 mg/mL antagonist/agonist diluent. Wild-type mice aged 7-8 weeks are selected to shave their back hair, and the exposed skin area is 2 cm×2 cm. The mice are applied with 100 μL of the antagonist/agonist diluent, and controls are smeared with a smearing control agent (i.e., 5 μL DMSO+95 μL 20% SBE-β-CD solution).

A further test concerns NF-κB (P65). Put plainly: Activation of NF-κB, AKT, p38, ERK in IL-23-activated primary γδT cells. Format: cell-based, mice. An excerpt: (§1) In the embodiment of the disclosure, in order to study how to ADRB1 regulates the inflammatory response of γδT cells, high-purity primary γδT cells are isolated from the spleen of mice by magnetic bead sorting kit, and stimulated with ADRB1 agonist and antagonist respectively.

A further test relates to primary γδT cells. The experiment in a line: IL17A/F transcription in primary γδT cells stimulated by IL-23 and ACE/DOB. The conditions noted are these: primary γδT cells activated by IL-23; DOB at high concentration. Format: cell-based, mice.
Source text: as §1

A further test relates to NF-κB. The experiment in a line: NF-κB phosphorylation in skin of IMQ-induced psoriatic mice. Format: in vivo.
Test [3] relates to IMQ-induced mice. Put plainly: Psoriasis model with subcutaneous norepinephrine (NE) injection. As to conditions: subcutaneous injection while IMQ is smeared. Format: in vivo. Here is the method: In the embodiment of the disclosure, the construction of psoriasis model injected with norepinephrine (NE) is as follows. 6 μL of norepinephrine storage solution (10 millimoles per liter, abbreviated mM) is dissolved into 100 μL of 1 xphosphate-buffered saline (also referred to as 1×PBS, specifically prepared by a commonly used 1× phosphate buffered saline recipe), and […] NE diluent is prepared. Wild-type mice aged 7-8 weeks are selected to shave their back hair, and the exposed skin area is 2 cm×2 cm. Then, the mice are subcutaneously injected with 100 μL NE diluent, and controls are injected with an injecting control agent (6 μL dimethyl sulfoxide, abbreviated DMSO+100 μL PBS).

In test [4] the test system is γδT-cell deficient mice (Tcrd−/−). The experiment in a line: DOB applied to skin of γδT-cell deficient mice (Tcrd−/−). Format: in vivo. An excerpt:
Combined with the previous results, it is verified that NE in skin is mainly derived from skin sympathetic nerve and mediates the release IL-17 from γδT cells rather than αβT cells through NE-ADRB1 signaling pathway.

The test system of test [5] is catecholaminergic neurons. The conditions noted are these: intraperitoneal injection; cited from earlier work.
The test system of another test is skin sympathetic nerve. The experiment in a line: Psoriasis model with skin sympathetic nerve ablation (intradermal 6-OHDA before IMQ). Format: in vivo, mice. As to conditions: intradermal injection before IMQ treatment. The method, then: In the embodiment of the disclosure, the sympathectomy of local skin is as follows. […] of 6-hydroxydopamine (6-OHDA) are dissolved into 100 microliters (μL) of 0.1% ascorbic acid solution (diluted with 0.9% sterile sodium chloride) to prepare a fresh sympathetic nerve ablation solution. Wild-type mice aged 7-8 weeks are selected to shave their back hair, and the exposed skin area is 2 centimeters (cm)×2 cm. Then, the mice are intradermally injected with 100 μL fresh sympathetic nerve ablation solution, controls are injected with an injecting control agent (100 μL of 0.1% ascorbic acid solution).

The mark [6] stands for this setting: psoriatic mice treated with IMQ vs control mice treated with VAS.

Structures are written as SMILES. Where a name gives a salt, the structure may show the parent alone.

Turning to `CC(C)Cn1cnc2c(N)nc3ccccc3c21` [IMQ, imiquimod], the “proportion of β1-AR+ cells in γδT cells in the skin” value with β1-AR (IMQ-treated vs VAS treated mice) was “significantly higher”. Besides, the “proportion of β1-AR+ cells in αβT cells in the skin” value with β1-AR (VAS-treated vs IMQ-treated mice) is given as “no significant difference”. Moreover, in test [1] (setting [6]), the “NE content in both skin and serum” value is listed as “higher”; the “dopamine in skin and serum” value was “no difference”. For the same molecule, the “TH phosphorylation in mouse skin” value in test [1] (western blot) is “significant up-regulation”.
`CC(C)(C)NCC(O)c1ccc(O)c(CO)c1` (stereo not drawn) [salbutamol]: in the test on Dendritic cells (DCs) (DCs from treated mice), the “IL-23 production by DCs” value is on record as “more”. For the same molecule, in the test with Dendritic cells (DCs), the “IL-17A induced by stimulated DCs” value is listed as “induce” and the “production of IFN-γ by CD4 cells” value is given as “reducing”.
As to `CCCC(=O)Nc1ccc(OCC(O)CNC(C)C)c(C(C)=O)c1` (stereo not drawn) [ACE, acebutolol hydrochloride], in the test with IMQ-induced mice [2] (IMQ-induced mice smeared with drug), the “proportion of γδT-17 cells in the skin” value is “reduced”. Further, in the test on NF-κB (P65), the “NF-κB (P65) phosphorylation” value is listed as “inhibits”; the “activation of P38, ERK, JNK and AKT” value was “do not affect”. In addition, in the test with primary γδT cells, the “transcription of IL17A” value is given as “decreases” and the “transcription of IL17F” value is “decreases”. Also, the “activation of NF-κB (phosphorylation) in the skin” value in the test on NF-κB is on record as “inhibition”.
With `NC[C@H](O)c1ccc(O)c(O)c1` [NE, norepinephrine], in the test with Dendritic cells (DCs), the “IL-17A induced by stimulated DCs” value is on record as “induce” and the “production of IFN-γ by CD4 cells” value is “reducing”. Also, the “proportion of IL-17A+γδT cells in the skin of mice” value in the test on IMQ-induced mice [3] is on record as “increases”. Also, the “psoriasis-like phenotype of mice induced by IMQ” value with IMQ-induced mice [3] (4 days) is “exacerbates”.
`CC(CCc1ccc(O)cc1)NCCc1ccc(O)c(O)c1` (stereo not drawn) [DOB, dobutamine hydrochloride]: in the test on IMQ-induced mice [2] (IMQ-induced mice), the “IL-17A production of γδT cells in the skin” value is “promotes”. In the test on IMQ-induced mice [2] (IMQ-induced mice smeared with drug, compared with the control group), the “back skin thickness, erythema, and scaling” value is on record as “increased”. For the same molecule, the psoriasis-like phenotype result in the test on IMQ-induced mice [2] (IMQ-induced mice, smeared on back skin, 100 μL of 2 mg/mL diluent, 4 consecutive days, compared with the control group) is “aggravated”. In addition, in the test on NF-κB (P65), the “NF-κB (P65) phosphorylation” value was “significantly increases”; the “activation of P38, ERK, JNK and AKT” value is “do not affect”. In the test with primary γδT cells, the “transcription of IL17A” value is given as “increase” and the “transcription of IL17F” value is listed as “increase”. Further, the “IL-17 producing capacity αβT cells” value in test [4] was “no effect”. Besides, the “promoting effects on the psoriasis-like phenotype and inflammatory infiltration” value in [4] (lack of γδT cells) is “offset”. Besides, the “activation of NF-κB (phosphorylation) in the skin” value in the test on NF-κB is “enhances”.
With `NCCc1cc(O)c(O)cc1O` [6-OHDA, 6-hydroxydopamine], in [5], the “IMQ induced ear swelling” value is given as “reduce” and the “production of IL-17” value is given as “does not affect”. Further, in the test with skin sympathetic nerve, the “IL-17A+γδT cells in sympathetic denervated skin” value is on record as “decreased” and the “NE in sympathetic denervated skin” value was “decrease”. Also, the “psoriasis-like phenotype of mice induced by IMQ” value with skin sympathetic nerve (removal of skin sympathetic nerve) is recorded as “reduces”.

These data come from US20240100000A1, “APPLICATION OF ADRB1 ACTIVE INHIBITOR IN PREPARING PREPARATION OR AS PREPARATION FOR TREATING PSORIASIS” (priority 2022, published 2024).
